The values below come from PMC10062709, “Fluorescence based HTS-compatible ligand binding assays for dopamine D3 receptors in baculovirus preparations and live cells” (Frontiers in Molecular Biosciences, 2023).

The assay deals with T1, human D3 receptor (Homo sapiens, UniProt P35462).
T1 construct: host or cells: Sf9 cells; final budded baculovirus production in Mimic Sf9 insect cells
Briefly: Fluorescence anisotropy competition binding with CELT-419 and D3 receptor budded baculoviruses. To be noted: FA competition with 0.5 nM CELT-419. For orientation: In fluorescence polarisation assays a small probe gives low polarisation when free and higher when bound to something large.

T1 sequence (P35462 whole entry): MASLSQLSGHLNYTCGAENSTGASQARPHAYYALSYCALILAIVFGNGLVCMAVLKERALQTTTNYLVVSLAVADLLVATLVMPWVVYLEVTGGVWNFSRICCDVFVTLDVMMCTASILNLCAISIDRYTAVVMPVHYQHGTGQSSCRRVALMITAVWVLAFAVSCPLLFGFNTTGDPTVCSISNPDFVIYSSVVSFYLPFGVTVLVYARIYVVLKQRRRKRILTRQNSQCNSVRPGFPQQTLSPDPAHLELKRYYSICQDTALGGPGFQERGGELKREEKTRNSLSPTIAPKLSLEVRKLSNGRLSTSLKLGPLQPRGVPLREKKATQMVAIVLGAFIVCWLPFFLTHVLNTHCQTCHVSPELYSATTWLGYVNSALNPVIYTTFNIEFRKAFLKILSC
Experimental: The competitive ligand dilutions were done on the measurement plate. Also, a point with no competitive ligand was included and for blank correction, a point with only BBV was included. Measurements were carried out with 5 min intervals for 5 h at 27 °C. In all cases, BBV was added as the last component to initiate the ligand binding process.
To fit the Log(IC50) change in time from the competition binding experiments, a single-phase exponential decay equation with a constant corresponding to the equilibrium state was used.

As for `CN1CCc2cccc3c2[C@H]1Cc1ccc(O)c(O)c1-3` [Apomorphine], the “Log(IC50) values change in time” value is on record as “increased in time”.
